Values joined by “and” are separate entries in the source; they are usually repeats but may differ in a detail not shown here. Equal values may be shown once. Inconclusive results and toxic doses are left out.
Test system: CD2F1 mice, L1210 leukemia ip, survival T/C
Test: NCI In Vivo Anticancer Drug Screen. Data for tumor model L1210 Leukemia (intraperitoneal) in CD2F1 (CDF1) mice
Conditions: higher = longer survival
Procedure, shortened: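 Each value reflects a quotient of treated over vehicle control outcomes in mice with a transplanted tumor.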

With NC(CSC(c1ccccc1)(c1ccccc1)c1ccccc1)C(=O)O (stereo unspecified) the T/C (endpoint: mean survival time, dose: 0.48 mg/kg/injection, schedule: Q03HX024 (oral), vehicle: saline) was 103 % of control, the T/C (endpoint: mean survival time, dose: 0.94 mg/kg/injection, schedule: Q03HX024 (oral), vehicle: saline) was 105 % of control and the T/C (endpoint: mean survival time, dose: 1.88 mg/kg/injection, schedule: Q03HX008 (oral), vehicle: saline) was 109 % of control. For the same compound, the T/C (endpoint: mean survival time, dose: 1.88 mg/kg/injection, schedule: Q03HX024 (oral), vehicle: saline) was 109 % of control, the T/C (endpoint: mean survival time, dose: 3.9 mg/kg/injection, schedule: Q04DX003 (ip), vehicle: water) was 102 % of control and the T/C (endpoint: mean survival time, dose: 5.0 mg/kg/injection, schedule: Q03HX024 (ip), vehicle: water) was 122 % of control and 106 % of control. For the same compound, the T/C (endpoint: mean survival time, dose: 5.9 mg/kg/injection, schedule: Q04DX003 (ip), vehicle: water) was 102 % of control, the T/C (endpoint: mean survival time, dose: 6.25 mg/kg/injection, schedule: Q01DX009 (sc), vehicle: saline) was 101 % of control and the T/C (endpoint: mean survival time, dose: 8.8 mg/kg/injection, schedule: Q04DX003 (ip), vehicle: water) was 103 % of control. For the same compound, the T/C (endpoint: mean survival time, dose: 10.0 mg/kg/injection, schedule: Q01DX009 (ip), vehicle: water) was 112 % of control, the T/C (endpoint: mean survival time, dose: 10.0 mg/kg/injection, schedule: Q03HX008 (ip), vehicle: water) was 120 % of control and the T/C (endpoint: mean survival time, dose: 10.0 mg/kg/injection, schedule: Q03HX016 (ip), vehicle: water) was 114 % of control. For the same compound, the T/C (endpoint: mean survival time, dose: 10.0 mg/kg/injection, schedule: Q03HX024 (ip), vehicle: clinical formulation) was 103 % of control, the T/C (endpoint: mean survival time, dose: 10.0 mg/kg/injection, schedule: Q03HX024 (ip), vehicle: saline) was 112 % of control and the T/C (endpoint: mean survival time, dose: 10.0 mg/kg/injection, schedule: Q03HX024 (ip), vehicle: water) was 151 % of control. The T/C (endpoint: mean survival time, dose: 12.5 mg/kg/injection, schedule: Q01DX009 (sc), vehicle: saline) was 107 % of control, the T/C (endpoint: mean survival time, dose: 13.2 mg/kg/injection, schedule: Q04DX003 (ip), vehicle: water) was 123 % of control and the T/C (endpoint: mean survival time, dose: 15.0 mg/kg/injection, schedule: Q01DX005 (oral), vehicle: saline) was 98 % of control. The T/C (endpoint: mean survival time, dose: 15.0 mg/kg/injection, schedule: Q01DX009 (oral), vehicle: saline) was 116 % of control, the T/C (endpoint: mean survival time, dose: 15.0 mg/kg/injection, schedule: Q03HX008 (oral), vehicle: saline) was 155 % of control and the T/C (endpoint: mean survival time, dose: 15.0 mg/kg/injection, schedule: Q03HX024 (oral), vehicle: saline) was 115 % of control. The T/C (endpoint: mean survival time, dose: 20.0 mg/kg/injection, schedule: Q01DX009 (sc), vehicle: water) was 123 % of control, the T/C (endpoint: mean survival time, dose: 20.0 mg/kg/injection, schedule: Q03HX008 (ip), vehicle: water) was 123 % of control and the T/C (endpoint: mean survival time, dose: 20.0 mg/kg/injection, schedule: Q03HX024 (ip), vehicle: clinical formulation) was 108 % of control. The T/C (endpoint: mean survival time, dose: 20.0 mg/kg/injection, schedule: Q03HX024 (ip), vehicle: saline) was 116 % of control, the T/C (endpoint: mean survival time, dose: 20.0 mg/kg/injection, schedule: Q04DX003 (ip), vehicle: water) was 123 % of control and the T/C (endpoint: mean survival time, dose: 30.0 mg/kg/injection, schedule: Q01DX005 (oral), vehicle: saline) was 100 % of control. The T/C (endpoint: mean survival time, dose: 30.0 mg/kg/injection, schedule: Q01DX009 (oral), vehicle: saline) was 106 % of control, the T/C (endpoint: mean survival time, dose: 30.0 mg/kg/injection, schedule: Q04DX003 (oral), vehicle: saline) was 101 % of control and the T/C (endpoint: mean survival time, dose: 40.0 mg/kg/injection, schedule: Q03HX024 (ip), vehicle: clinical formulation) was 121 % of control. For the same compound, the T/C (endpoint: mean survival time, dose: 40.0 mg/kg/injection, schedule: Q03HX024 (ip), vehicle: water) was 92 % of control, the T/C (endpoint: mean survival time, dose: 45.0 mg/kg/injection, schedule: Q04DX003 (ip), vehicle: water) was 114 % of control and the T/C (endpoint: mean survival time, dose: 50.0 mg/kg/injection, schedule: Q01DX001 (sc), vehicle: saline) was 120 % of control. For the same compound, the T/C (endpoint: mean survival time, dose: 60.0 mg/kg/injection, schedule: Q01DX005 (oral), vehicle: saline) was 111 % of control, the T/C (endpoint: mean survival time, dose: 60.0 mg/kg/injection, schedule: Q04DX003 (oral), vehicle: saline) was 106 % of control and the T/C (endpoint: mean survival time, dose: 80.0 mg/kg/injection, schedule: Q01DX001 (ip), vehicle: water) was 104 % of control. The T/C (endpoint: mean survival time, dose: 80.0 mg/kg/injection, schedule: Q01DX009 (oral), vehicle: water) was 157 % of control, the T/C (endpoint: mean survival time, dose: 80.0 mg/kg/injection, schedule: Q03HX024 (ip), vehicle: clinical formulation) was 150 % of control and the T/C (endpoint: mean survival time, dose: 80.0 mg/kg/injection, schedule: Q03HX024 (ip), vehicle: saline) was 154 % of control. The T/C (endpoint: mean survival time, dose: 80.0 mg/kg/injection, schedule: Q04DX003 (ip), vehicle: water) was 121 % of control, the T/C (endpoint: mean survival time, dose: 80.0 mg/kg/injection, schedule: Q08DX002 (ip), vehicle: saline) was 102 % of control and the T/C (endpoint: mean survival time, dose: 100.0 mg/kg/injection, schedule: Q01DX001 (sc), vehicle: saline) was 115 % of control. For the same compound, the T/C (endpoint: mean survival time, dose: 120.0 mg/kg/injection, schedule: Q01DX001 (oral), vehicle: saline) was 102 % of control, the T/C (endpoint: mean survival time, dose: 120.0 mg/kg/injection, schedule: Q01DX005 (oral), vehicle: saline) was 123 % of control and the T/C (endpoint: mean survival time, dose: 120.0 mg/kg/injection, schedule: Q04DX003 (oral), vehicle: saline) was 108 % of control. For the same compound, the T/C (endpoint: mean survival time, dose: 160.0 mg/kg/injection, schedule: Q01DX001 (oral), vehicle: water) was 115 % of control, the T/C (endpoint: mean survival time, dose: 160.0 mg/kg/injection, schedule: Q03HX024 (ip), vehicle: clinical formulation) was 152 % of control and the T/C (endpoint: mean survival time, dose: 160.0 mg/kg/injection, schedule: Q03HX024 (ip), vehicle: saline) was 234 % of control. For the same compound, the T/C (endpoint: mean survival time, dose: 200.0 mg/kg/injection, schedule: Q01DX009 (sc), vehicle: saline) was 86 % of control, the T/C (endpoint: mean survival time, dose: 240.0 mg/kg/injection, schedule: Q01DX001 (oral), vehicle: saline) was 107 % of control and the T/C (endpoint: mean survival time, dose: 240.0 mg/kg/injection, schedule: Q01DX009 (oral), vehicle: saline) was 103 % of control. The T/C (endpoint: mean survival time, dose: 240.0 mg/kg/injection, schedule: Q04DX003 (oral), vehicle: saline) was 111 % of control, the T/C (endpoint: mean survival time, dose: 320.0 mg/kg/injection, schedule: Q03HX024 (ip), vehicle: saline) was 86 % of control and the T/C (endpoint: mean survival time, dose: 400.0 mg/kg/injection, schedule: Q01DX001 (sc), vehicle: saline) was 108 % of control. The T/C (endpoint: mean survival time, dose: 480.0 mg/kg/injection, schedule: Q01DX001 (oral), vehicle: saline) was 107 % of control, the T/C (endpoint: mean survival time, dose: 480.0 mg/kg/injection, schedule: Q01DX005 (oral), vehicle: saline) was 97 % of control and the T/C (endpoint: mean survival time, dose: 480.0 mg/kg/injection, schedule: Q01DX009 (oral), vehicle: saline) was 96 % of control. The T/C (endpoint: mean survival time, dose: 640.0 mg/kg/injection, schedule: Q01DX001 (oral), vehicle: water) was 108 % of control, the T/C (endpoint: mean survival time, dose: 640.0 mg/kg/injection, schedule: Q01DX001 (sc), vehicle: water) was 180 % of control and the T/C (endpoint: mean survival time, dose: 800.0 mg/kg/injection, schedule: Q01DX001 (sc), vehicle: saline) was 106 % of control. The T/C (endpoint: mean survival time, dose: 960.0 mg/kg/injection, schedule: Q04DX003 (oral), vehicle: saline) was 150 % of control, the T/C (endpoint: median survival time, dose: 3.9 mg/kg/injection, schedule: Q01DX009 (ip), vehicle: clinical formulation) was 91 % of control and the T/C (endpoint: median survival time, dose: 5.0 mg/kg/injection, schedule: Q03HX024 (ip), vehicle: water) was 111 % of control. For the same compound, the T/C (endpoint: median survival time, dose: 7.8 mg/kg/injection, schedule: Q01DX009 (ip), vehicle: clinical formulation) was 94 % of control, the T/C (endpoint: median survival time, dose: 10.0 mg/kg/injection, schedule: Q01DX009 (ip), vehicle: water) was 88 % of control and the T/C (endpoint: median survival time, dose: 10.0 mg/kg/injection, schedule: Q03HX024 (ip), vehicle: water) was 122 % of control. The T/C (endpoint: median survival time, dose: 10.0 mg/kg/injection, schedule: Q04DX003 (ip), vehicle: water) was 111 % of control, the T/C (endpoint: median survival time, dose: 15.6 mg/kg/injection, schedule: Q01DX009 (ip), vehicle: clinical formulation) was 121 % of control and the T/C (endpoint: median survival time, dose: 20.0 mg/kg/injection, schedule: Q01DX009 (oral), vehicle: water) was 111 % of control. For the same compound, the T/C (endpoint: median survival time, dose: 20.0 mg/kg/injection, schedule: Q03HX024 (ip), vehicle: water) was 150 % of control, the T/C (endpoint: median survival time, dose: 20.0 mg/kg/injection, schedule: Q04DX003 (ip), vehicle: water) was 88 % of control and the T/C (endpoint: median survival time, dose: 31.3 mg/kg/injection, schedule: Q01DX009 (ip), vehicle: clinical formulation) was 118 % of control. For the same compound, the T/C (endpoint: median survival time, dose: 31.3 mg/kg/injection, schedule: Q01DX009 (oral), vehicle: clinical formulation) was 121 % of control, the T/C (endpoint: median survival time, dose: 31.3 mg/kg/injection, schedule: Q03HX008 (oral), vehicle: clinical formulation) was 121 % of control and the T/C (endpoint: median survival time, dose: 31.3 mg/kg/injection, schedule: Q03HX024 (oral), vehicle: clinical formulation) was 88 % of control. For the same compound, the T/C (endpoint: median survival time, dose: 40.0 mg/kg/injection, schedule: Q01DX009 (ip), vehicle: water) was 88 % of control, the T/C (endpoint: median survival time, dose: 40.0 mg/kg/injection, schedule: Q01DX009 (oral), vehicle: water) was 111 % of control and the T/C (endpoint: median survival time, dose: 40.0 mg/kg/injection, schedule: Q04DX003 (ip), vehicle: water) was 88 % of control. The T/C (endpoint: median survival time, dose: 62.5 mg/kg/injection, schedule: Q03HX008 (oral), vehicle: clinical formulation) was 164 % of control, the T/C (endpoint: median survival time, dose: 62.5 mg/kg/injection, schedule: Q03HX016 (oral), vehicle: clinical formulation) was 90 % of control and the T/C (endpoint: median survival time, dose: 80.0 mg/kg/injection, schedule: Q04DX003 (ip), vehicle: water) was 105 % of control. For the same compound, the T/C (endpoint: median survival time, dose: 125.0 mg/kg/injection, schedule: Q01DX009 (oral), vehicle: clinical formulation) was 114 % of control, the T/C (endpoint: median survival time, dose: 125.0 mg/kg/injection, schedule: Q03HX016 (oral), vehicle: clinical formulation) was 90 % of control and the T/C (endpoint: median survival time, dose: 125.0 mg/kg/injection, schedule: Q04DX003 (oral), vehicle: clinical formulation) was 151 % of control. For the same compound, the T/C (endpoint: median survival time, dose: 160.0 mg/kg/injection, schedule: Q01DX009 (oral), vehicle: water) was 116 % of control, the T/C (endpoint: median survival time, dose: 250.0 mg/kg/injection, schedule: Q01DX001 (oral), vehicle: clinical formulation) was 119 % of control and the T/C (endpoint: median survival time, dose: 250.0 mg/kg/injection, schedule: Q04DX003 (oral), vehicle: clinical formulation) was 184 % of control. For the same compound, the T/C (endpoint: median survival time, dose: 250.0 mg/kg/injection, schedule: Q08DX002 (oral), vehicle: clinical formulation) was 151 % of control, the T/C (endpoint: median survival time, dose: 500.0 mg/kg/injection, schedule: Q01DX001 (oral), vehicle: clinical formulation) was 98 % of control and the T/C (endpoint: median survival time, dose: 500.0 mg/kg/injection, schedule: Q04DX003 (oral), vehicle: clinical formulation) was 98 % of control. For the same compound, the T/C (endpoint: median survival time, dose: 500.0 mg/kg/injection, schedule: Q08DX002 (oral), vehicle: clinical formulation) was 191 % of control.

— PubChem BioAssay AID256 (DTP/NCI, 2004)
